Data from patent US20090068258A1, “Caveolin-mimetic peptide for prevention and treatment of pulmonary hypertension and right ventricular hypertrophy” (priority 2007, published 2009).
Residues, ends and D or L forms follow the SMILES beside them. *: point of attachment. Biotin = O=C1N[C@H]2[C@H](CS[C@H]2CCCCC(=O)*)N1

Legend:
[1] = tested on: Cav-1; assay: Dual-label immunofluorescence analysis of Cav-1 in pulmonary arteries of MCT rats; format: in vivo, Sprague-Dawley rats
Procedure: (§1) Male Sprague-Dawley rats (Charles River, Wilmington, Mass.) weighing between 250-300 g received a single intraperitoneal (ip) injection of either 0.5 ml 0.9% NaCl or 0.5 ml 60 mg/kg MCT. Thirty minutes later, rats were randomly assigned to receive a daily ip injection of either 0.5 ml 0.9% NaCl, 0.5 ml AP (2.5 mg/kg/d) or 0.5 ml AP-Cav (2.5 mg/kg/d) for 2 weeks.
(§2) Immunofluorescence Analysis. As mentioned above, the left lung of Control (n=17), Control+AP-Cav (n=10), MCT (n=25), MCT+AP (n=19), and MCT+AP-Cav (n=24) rats was dissected and perfused-fixed. Transverse sections were obtained and embedded with paraffin. Sections of 10 μm were cut and stained with hematoxylin and eosin (H&E).
(§3) Paraffin from 10 μm-thick sections was removed by immersion in xylene. These sections were then rehydrated with graded alcohol to water and blocked overnight. The sections were subsequently incubated with a given primary antibody for three hours. FITC- and TRITC-conjugated secondary antibodies were then added to the sections after a 15 min wash in PBS. After 1 hr of incubation with the secondary antibodies, the sections were washed in PBS and mounted using Prolong Gold antifade reagent (Molecular Probes, Carlsbad, Calif.).

[2] = tested on: PY-STAT3; assay: Immunoblot analysis of lung PY-STAT3 in MCT rats; format: in vivo, Sprague-Dawley rats
Procedure: as §1
(§4) Immunoblot Analysis. Lung samples from Control (n=17), Control+AP-Cav (n=10), MCT (n=25), MCT+AP (n=19), and MCT+AP-Cav (n=24) groups were homogenized in a RIPA lysis buffer containing protease and phosphatase inhibitors. Proteins were then separated by SDS-PAGE (12% acrylamide) and transferred to nitrocellulose membranes. The membranes were placed in blocking solution for 30 min. Afterwards, the membranes were washed and incubated with a given primary antibody for 1 hour (Cav-1, -2 and β-actin) or 3 hours (eNOS, STAT3, PY-STAT3, cyclin D1, and cyclin D3). […] Western blots for Cav-1, Cav-2, eNOS, PY-STAT3, cyclin D1 and cyclin D3 were subsequently quantitated using the NIH Image J software (using the mean gray value for each band).
(§5) Statistical Analysis. Hemodynamic and morphometric variables as well as the mean gray value of each western blot are expressed as mean±S.E.M. Differences between the 5 groups were evaluated by ANOVA, followed by Tukey's multiple-group comparisons test. […]

[3] = tested on: Cav-1; assay: Immunoblot analysis of lung Cav-1 protein levels in MCT rats; format: in vivo, Sprague-Dawley rats
Procedure: as §1, §4, §5

[4] = tested on: rats with MCT-induced PH; assay: Hemodynamic and morphometric variables in rats with MCT-induced PH; format: in vivo, Sprague-Dawley rats; conditions: MCT 60 mg/kg ip rats, peptide 2.5 mg/kg/d ip for 2 weeks; for RV/LV+septum weight ratio: Control rats 25.3±0.5, MCT rats 31.1±0.6; for RV systolic pressures: Control rats 26.0±0.9, MCT rats 40.2±1.5; for BW (body weight) / CVP (central venous pressure) / Dry lung weight/BW / Dry/wet lung weight / HR (heart rate) / LV(+)dP/dt / LV(−)dP/dt / LV/BW / LVEDP (LV-end diastolic pressure) / MAP (mean arterial pressure) / RV(+)dP/dt / RV(−)dP/dt / RV/BW / RVEDP (RV-end diastolic pressure) / Wet lung weight/BW: mean±S.E.M.
Procedure: as §1
(§6) At two weeks, rats were anesthetized with xylazine (10 mg/kg)-ketamine (50 mg/kg) followed by 2000 U heparin (Sigma-Aldrich). The right jugular vein and carotid artery were then isolated and incised, and millar catheters (SPR-249, Millar Instruments, Houston, Tex.) were advanced into the right and left ventricles (RV and LV) for hemodynamic measurements. The RV and LV pressures were recorded with the Ponemah P3-Data acquisition system (LDS Test and Measurement, Middleton, Wis.).
(§7) Afterwards, the lower lobe of the right lung and the heart were dissected and weighed to respectively determine pulmonary edema and RV hypertrophy, as previously described^11. The remaining lobes of the right lung were submerged in liquid nitrogen and frozen at −80° C. The left pulmonary artery was then cannulated and perfused with 4% paraformaldehyde (PFA) for 2 min. This was followed by perfusion of the airways with 4% PFA for 2 min. The left lung was then immersed in 4% PFA for 24 hours.
(§8) Statistical Analysis. Hemodynamic and morphometric variables as well as the mean gray value of each western blot are expressed as mean±S.E.M. Differences between the 5 groups were evaluated by ANOVA, followed by Tukey's multiple-group comparisons test. Statistical significance was assumed at p<0.05.

[5] = tested on: Cav-2; assay: Dual-label immunofluorescence analysis of Cav-2 in pulmonary arteries of MCT rats; format: in vivo, Sprague-Dawley rats
Procedure: as §1, §2, §3

[6] = tested on: cyclin D3; assay: Immunoblot analysis of lung cyclin D3 in MCT rats; format: in vivo, Sprague-Dawley rats
Procedure: as §1, §4, §5

[7] = tested on: Cav-2; assay: Immunoblot analysis of lung Cav-2 protein levels in MCT rats; format: in vivo, Sprague-Dawley rats
Procedure: as §1, §4, §5

[8] = tested on: pulmonary arteries of MCT rats; assay: Lung vascular morphometry (percent medial wall thickness) in MCT rats; format: in vivo, Sprague-Dawley rats
Procedure: as §1
(§9) Lung Vascular Morphometry. H&E sections of the left lung (n=10 for each groups) were microscopically assessed for the medial wall thickness of pulmonary arteries. Measurements of the luminal diameter and the medial thickness on either side were obtained using the Image J software. Measurements were made on 30 muscular arteries (<50 μm, 51-100 μm, and 100-150 μm of external diameter) per lung section. The medial wall thickness was then related to the external diameter and expressed as percent wall thickness, as previously described^20.
as §8

[9] = tested on: cyclin D1; assay: Immunoblot analysis of lung cyclin D1 in MCT rats; format: in vivo, Sprague-Dawley rats
Procedure: as §1, §4, §5

[10] = tested on: pulmonary arteries of Control rats; assay: Lung vascular morphometry (percent medial wall thickness) in Control rats; format: in vivo, Sprague-Dawley rats; conditions: data not shown
Procedure: as §1, §9, §8

[11] = tested on: mice; conditions: in vivo delivery, previous reports (refs 17;18); cited from earlier work
[12] = tested on: Control rats; assay: Hemodynamic and morphometric variables in Control rats (0.9% NaCl instead of MCT); format: in vivo, Sprague-Dawley rats
Procedure: as §1, §6, §7, §8

[13] = Control rats (no MCT), peptide 2.5 mg/kg/d ip for 2 weeks, mean±S.E.M.

## CC[C@H](C)[C@H](NC(=O)[C@H](CCCCN)NC(=O)[C@@H]1CCCN1C(=O)[C@H](CCC(N)=O)NC(=O)[C@H](CCCNC(=N)N)NC(=O)CCCC[C@@H]1SC[C@@H]2NC(=O)N[C@@H]21)C(=O)N[C@@H](Cc1c[nH]c2ccccc12)C(=O)N[C@@H](Cc1ccccc1)C(=O)N1CCC[C@H]1C(=O)N[C@@H](CC(N)=O)C(=O)N[C@@H](CCCNC(=N)N)C(=O)N[C@@H](CCCNC(=N)N)C(=O)N[C@@H](CCCCN)C(=O)N1CCC[C@H]1C(=O)N[C@@H](Cc1c[nH]c2ccccc12)C(=O)N[C@@H](CCCCN)C(=O)N[C@@H](CCCCN)C(=O)O [AP, (biotin)-RQPKIWFPNRRKPWKK (SEQ ID NO:1)—(OH)] (Biotin-RQPKIWFPNRRKPWKK-OH)
[1]
  Cav-1 expression in pulmonary arteries: marked reductions
[2]; vs Control rats
  increased levels of PY-STAT3 in the lungs: ~5 fold
[3]; vs Control rats
  decrease of Cav-1 protein levels in the lungs: ~3 fold
[4]
  RV/LV+septum weight ratio: 30.6±0.6%
  RV systolic pressures: 39.6±1.5 mmHg
  BW (body weight): 335 ± 7 g
  CVP (central venous pressure): 5.1 ± 0.3 mmHg
  Dry lung weight/BW: 0.033 ± 0.001 %
  Dry/wet lung weight: 19.7 ± 0.4%
  HR (heart rate): 274 ± 12 beats/min
  LV(+)dP/dt: 6268 ± 339 mmHg/s
  LV(−)dP/dt: 4319 ± 286 mmHg/s
  LV/BW: 0.200 ± 0.004%
  LVEDP (LV-end diastolic pressure): 2.7 ± 0.3 mmHg
  MAP (mean arterial pressure): 85.3 ± 4.4 mmHg
  RV(+)dP/dt: 1931 ± 78 mmHg/s
  RV(−)dP/dt: 1395 ± 72 mmHg/s
  RV/BW: 0.061 ± 0.002 %
  RVEDP (RV-end diastolic pressure): 5.1 ± 0.3 mmHg
  Wet lung weight/BW: 0.170 ± 0.007 %
[5]
  Cav-2 expression in pulmonary arteries: marked reductions
[6]; vs Control rats
  increase in cyclin D3 protein levels in the lungs: ~4 fold
[7]; vs Control rats
  decrease of Cav-2 protein levels in the lungs: ~2 fold
[8]; arteries <50 μm, 51-100 μm, 100-150 μm, vs Control rats
  increased percent medial wall thickness of pulmonary arteries: 2-3 fold
[9]; vs Control rats
  increase in cyclin D1 protein levels in the lungs: ~4 fold

## (biotin)-RQPKTWFPNRRKPWKK-DGIWKASFTTFTVTKYWFYR (SEQ ID NO:10)—(OH) [AP-Cav]
[10]
  percent medial wall thickness of pulmonary arteries (effect in words): had no effect
[11]
  systemic blood pressure, blood flow, and heart rate: had no effect
[1]
  Cav-1 expression in pulmonary arteries: prevented
[12]; [13]
  BW (body weight): 407 ± 12 g
  CVP (central venous pressure): 3.1 ± 0.1 mmHg
  Dry lung weight/BW: 0.019 ± 0.000%
  Dry/wet lung weight: 20.8 ± 0.1%
  HR (heart rate): 270 ± 6 beats/min
  LV(+)dP/dt: 6216 ± 446 mmHg/s
  LV(−)dP/dt: 4614 ± 320 mmHg/s
  LV/BW: 0.194 ± 0.005%
  LVEDP (LV-end diastolic pressure): 3.0 ± 0.3 mmHg
  MAP (mean arterial pressure): 79.4 ± 3.4 mmHg
  RV(+)dP/dt: 1435 ± 60 mmHg/s
  RV(−)dP/dt: 988 ± 46 mmHg/s
  RV/BW: 0.050 ± 0.001%
  RVEDP (RV-end diastolic pressure): 2.8 ± 0.2 mmHg
  Wet lung weight/BW: 0.091 ± 0.001%
[12]; Control rats, compared to Control group receiving 0.9% NaCl alone
  effect on hemodynamic and morphometric variables: did not affect
[2]; 2.5 mg/kg/d ip for 2 weeks
  STAT3 signaling cascade (PY-STAT3) in the lungs (effect in words): prevented the hyper-activation
[3]; 2.5 mg/kg/d ip for 2 weeks
  pulmonary Cav-1 protein levels (effect in words): significantly prevented the reduction
[4]
  RV/LV+septum weight ratio: 24.6±0.5%
  RV systolic pressures: 30.1±1.3 mmHg
  BW (body weight): 371 ± 9 g
  CVP (central venous pressure): 3.2 ± 0.2 mmHg
  Dry lung weight/BW: 0.028 ± 0.001 %
  Dry/wet lung weight: 20.7 ± 0.3%
  HR (heart rate): 261 ± 12 beats/min
  LV(+)dP/dt: 5766 ± 335 mmHg/s
  LV(−)dP/dt: 3891 ± 309 mmHg/s
  LV/BW: 0.200 ± 0.003%
  LVEDP (LV-end diastolic pressure): 2.7 ± 0.3 mmHg
  MAP (mean arterial pressure): 82.6 ± 2.9 mmHg
  RV(+)dP/dt: 1489 ± 18 mmHg/s
  RV(−)dP/dt: 1107 ± 61 mmHg/s
  RV/BW: 0.049 ± 0.001 %
  RVEDP (RV-end diastolic pressure): 3.0 ± 0.2 mmHg
  Wet lung weight/BW: 0.132 ± 0.004 %
[5]
  Cav-2 expression in pulmonary arteries: prevented
[6]; 2.5 mg/kg/d ip for 2 weeks
  pulmonary cyclin D3 expression (effect in words): prevented the upregulation
[7]; 2.5 mg/kg/d ip for 2 weeks
  pulmonary Cav-2 protein levels (effect in words): significantly prevented the reduction
[8]; 2.5 mg/kg/d ip for 2 weeks
  percent medial wall thickness of pulmonary arteries (effect in words): significantly reduced
[9]; 2.5 mg/kg/d ip for 2 weeks
  pulmonary cyclin D1 expression (effect in words): prevented the upregulation
